# Assay results: patent publication US10364263B2, “Cyclic phosphates and cyclic phosphoramidates for the treatment of neurologic disorders” (Retrophin, Inc., priority 2015, dated 2019)
# Like-named read-outs stand apart in the source and are kept apart here.
# Assays:
# [1] = tested on: PANK2 silenced human neuroblastoma IMR32 cells (PANK2−/−); assay: Coenzyme A assay in PANK2 silenced cells (LC-MS quantification of free CoA); assay type: cell-based; details: compound added twice (24 h + 24 h), relative to 0.1% DMSO controls
# How it was run: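 Free intracellular CoA was measured by positive-mode LC-MS/MS of 20% TFA extracts, taking 2 μl per 10^6 cells as intracellular volume. Cells were IMR32 with stable lentiviral PANK2 knockdown, dosed twice 24 h apart (48 h total, 0.1% DMSO). Output is fold increase over vehicle.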
# [2] = Stability in human plasma; assay type: in vitro ADME; details: 37° C.
# Procedure: Compounds and positive control samples were dissolved in 100% DMSO at 3 mM. To investigate the stability of the test compounds in plasma, samples were made by diluting test compounds into plasma from the stock solutions to obtain a test compound concentration of 3 μM (0.1% DMSO). Before addition of a test compound, 990 μl of plasma were preincubated at 37° C. for 5 min in eppendorf. After addition of a test compound, 70 μl for each time point were transferred to a 96-deepwell plate, previously warmed at 37° C. in a DUBNOFF water bath. Each compound was tested at five time points, in duplicate (10, 20, 30, 40 and 60 min). At each time point, an aliquot of 50 μl was taken and transferred to a new 96-deepwell plate, and the reaction was stopped with 200 μl of 100% acetonitrile containing 0.1% formic acid and the appropriate internal standard. Then samples were centrifuged at 1100×g for 30 min at +4° C. and supernatants were transferred to a new 96-deepwell plate. Samples were evaporated under N2 and reconstituted in H2O/ACN 0.1% Formic Acid (98:2). Analysis was performed without a calibration curve (Acquity UPLC-Waters; SciexAPI4000). Time 0 was obtained by adding acetonitrile before addition of the test compound.
# [3] = human, plasma, Diastereoisomer A (upfield shift in 31P NMR), read-out: t1/2, Human Plasma, Diastereoisomer A (converted)
# [4] = human, plasma, Diastereoisomer B, read-out: t1/2, Human Plasma, Diastereoisomer B (converted)
SMILES,PANK2−/− CoA (Fold Increase): fold increase in Coenzyme A (CoA) levels relative to controls [1] [Fold Increase],"half-life at 3 µM [2, 3] [min]",further results
"COC(=O)CCNC(=O)[C@@H]1OP(=O)(N[C@@H](C)C(=O)OCCc2ccccc2)OCC1(C)C (stereo in doubt) [compound 48, methyl 3-((2R,4R)-5,5-dimethyl-2-oxido-2-(((S)-1-oxo-1-phenethoxypropan-2-yl)amino)-1,3,2-dioxaphosphinane-4-carboxamido)propanoate]",2.16,> 60,
"C[C@H](NP1(=O)OCC(C)(C)[C@H](C(=O)NCCC(=O)OC2Cc3ccccc3C2)O1)C(=O)OCCc1ccccc1 (stereo partly drawn) [1-54, 2,3-dihydro-1H-inden-2-yl 3-((4R)-5,5-dimethyl-2-oxido-2-(((S)-1-oxo-1-phenethoxypropan-2-yl)amino)-1,3,2-dioxaphosphinane-4-carboxamido)propanoate]",1.13,< 9.6,"half-life at 3 µM [2, 4]: < 9.6 min"
"COC(=O)CCNC(=O)[C@@H]1OP(=O)(N[C@@H](C)C(=O)OC2CCOC2)OCC1(C)C (stereo partly drawn) [compound 34, methyl 3-((4R)-5,5-dimethyl-2-oxido-2-(((2S)-1-oxo-1-((tetrahydrofuran-3-yl)oxy)propan-2-yl)amino)-1,3,2-dioxaphosphinane-4-carboxamido)propanoate]",1.3,,"half-life at 3 µM ([2]; Diastereoisomer A (upfield shift in 31P NMR), read-out: t1/2, Human Plasma, Diastereoisomer A (converted)): > 60 min; t1/2, Human Plasma, Diastereoisomer B ([2]; Diastereoisomer B, 3 μM): >1 h"
"CC(C)[C@H](N[P@]1(=O)OCC(C)(C)[C@H](C(=O)NCCC(=O)OC(C)(C)C)O1)C(=O)OCCc1ccccc1 [compound 49, phenethyl ((2S,4R)-4-((3-(tert-butoxy)-3-oxopropyl)carbamoyl)-5,5-dimethyl-2-oxido-1,3,2-dioxaphosphinan-2-yl)-L-valinate]",1.09,> 60,
"C[C@H](NP1(=O)OCC(C)(C)[C@H](C(=O)NCCC(=O)OCCN2CCCC2)O1)C(=O)OCCc1ccccc1 (stereo partly drawn) [compound 44, phenethyl ((4R)-5,5-dimethyl-2-oxido-4-((3-oxo-3-(2-(pyrrolidin-1-yl)ethoxy)propyl)carbamoyl)-1,3,2-dioxaphosphinan-2-yl)-L-alaninate]",1.62,> 60,
"COC(=O)CCNC(=O)[C@@H]1OP(=O)(N[C@@H](Cc2cccnc2)C(=O)OCCc2ccccc2)OCC1(C)C (stereo partly drawn) [compound 36, phenethyl (2S)-2-(((4R)-4-((3-methoxy-3-oxopropyl)carbamoyl)-5,5-dimethyl-2-oxido-1,3,2-dioxaphosphinan-2-yl)amino)-3-(pyridin-3-yl)propanoate]",2.44,> 60,"half-life at 3 µM [2, 4]: > 60 min"
"COC(=O)CCNC(=O)[C@@H]1OP(=O)(N[C@@H](C)C(=O)OCCCc2ccccc2)OCC1(C)C (stereo in doubt) [compound 46, methyl 3-((2R,4R)-5,5-dimethyl-2-oxido-2-(((S)-1-oxo-1-(3-phenylpropoxy)propan-2-yl)amino)-1,3,2-dioxaphosphinane-4-carboxamido)propanoate]",2.74,57,
"C[C@H](NP1(=O)OCC(C)(C)[C@H](C(=O)NCCC(=O)O[C@@H]2CCOC2)O1)C(=O)OCCc1ccccc1 (stereo partly drawn) [1-55, phenethyl ((4R)-5,5-dimethyl-2-oxido-4-((3-oxo-3-(((R)-tetrahydrofuran-3-yl)oxy)propyl)carbamoyl)-1,3,2-dioxaphosphinan-2-yl)-L-alaninate]",2.09,> 60,"half-life at 3 µM [2, 4]: > 60 min"
"COC(=O)CCNC(=O)[C@@H]1OP(=O)(OCOC(=O)C(C)C)OCC1(C)C (stereo partly drawn) [Compound No. 103, (((4R)-4-((3-methoxy-3-oxopropyl)carbamoyl)-5,5-dimethyl-2-oxido-1,3,2-dioxaphosphinan-2-yl)oxy)methyl isobutyrate]",105.8,< 9.6,"half-life at 3 µM [2, 4]: < 9.6 min"
"COC(=O)CCNC(=O)[C@@H]1OP(=O)(OCOC(=O)NC(C)(C)COC(=O)C(C)(C)C)OCC1(C)C (stereo partly drawn) [2-167, 2-((((((4R)-4-((3-methoxy-3-oxopropyl)carbamoyl)-5,5-dimethyl-2-oxido-1,3,2-dioxaphosphinan-2-yl)oxy)methoxy)carbonyl)amino)-2-methylpropyl pivalate]",3.26,,
"COC(=O)CCNC(=O)[C@@H]1O[P@@](=O)(OCOC(=O)NC(C)(C)COC(=O)[C@@H](N)C(C)C)OCC1(C)C [2-158, 2-((((((2S,4R)-4-((3-methoxy-3-oxopropyl)carbamoyl)-5,5-dimethyl-2-oxido-1,3,2-dioxaphosphinan-2-yl)oxy)methoxy)carbonyl)amino)-2-methylpropyl L-valinate]",2.72,,
"COC(=O)CCNC(=O)[C@@H]1OP(=O)(OCOC(=O)NCCSC(=O)[C@@H](NC(=O)OCc2ccccc2)C(C)C)OCC1(C)C (stereo partly drawn) [2-175, methyl 3-((4R)-2-(((S)-9-isopropyl-3,8,11-trioxo-13-phenyl-2,12-dioxa-7-thia-4,10-diazatridecyl)oxy)-5,5-dimethyl-2-oxido-1,3,2-dioxaphosphinane-4-carboxamido)propanoate]",9.31,,
"COC(=O)CCNC(=O)[C@@H]1OP(=O)(N[C@H](C(=O)OC)C2CCCCC2)OCC1(C)C (stereo partly drawn) [compound 12, methyl 3-((4R)-2-(((S)-1-cyclohexyl-2-methoxy-2-oxoethyl)amino)-5,5-dimethyl-2-oxido-1,3,2-dioxaphosphinane-4-carboxamido)propanoate]",1.28,,
"COC(=O)CCNC(=O)[C@@H]1OP(=O)(OCOC(=O)NCCOC(C)=O)OCC1(C)C (stereo partly drawn) [2-168, methyl 3-((4R)-2-((((2-acetoxyethyl)carbamoyl)oxy)methoxy)-5,5-dimethyl-2-oxido-1,3,2-dioxaphosphinane-4-carboxamido)propanoate]",2.69,,
"COC(=O)CCNC(=O)[C@@H]1OP(=O)(OCOC(=O)c2ccnn2C)OCC1(C)C (stereo partly drawn) [2-142, (((4R)-4-((3-methoxy-3-oxopropyl)carbamoyl)-5,5-dimethyl-2-oxido-1,3,2-dioxaphosphinan-2-yl)oxy)methyl 1-methyl-1H-pyrazole-5-carboxylate]",58.1,,
"COC(=O)CCNC(=O)[C@@H]1OP(=O)(OCOC(=O)N[C@@H](CSC(=O)C(C)(C)C)C(=O)O)OCC1(C)C (stereo partly drawn) [2-180, N-(((((4R)-4-((3-methoxy-3-oxopropyl)carbamoyl)-5,5-dimethyl-2-oxido-1,3,2-dioxaphosphinan-2-yl)oxy)methoxy)carbonyl)-S-pivaloyl-L-cysteine]",26.8,,
"COC(=O)CCNC(=O)[C@@H]1OP(=O)(OCOC(=O)[C@@H]2COC(=O)N2C(=O)OC(C)(C)C)OCC1(C)C (stereo partly drawn) [2-189, 3-(tert-butyl) 4-((((4R)-4-((3-methoxy-3-oxopropyl)carbamoyl)-5,5-dimethyl-2-oxido-1,3,2-dioxaphosphinan-2-yl)oxy)methyl) (4S)-2-oxooxazolidine-3,4-dicarboxylate]",3.86,,
"COC(=O)CCNC(=O)[C@@H]1OP(=O)(N2CCCCC2)OCC1(C)C (stereo in doubt) [compound 133, methyl 3-((2R,4R)-5,5-dimethyl-2-oxido-2-(piperidin-1-yl)-1,3,2-dioxaphosphinane-4-carboxamido)propanoate]",1.45,,
"COC(=O)CCNC(=O)[C@@H]1O[P@@](=O)(OCOC(=O)c2cnco2)OCC1(C)C (single isomer, unassigned) [2-151]",17.56,,
"COC(=O)CCNC(=O)[C@@H]1O[P@@](=O)(OCOC(=O)c2sncc2C)OCC1(C)C [2-176, (((2S,4R)-4-((3-methoxy-3-oxopropyl)carbamoyl)-5,5-dimethyl-2-oxido-1,3,2-dioxaphosphinan-2-yl)oxy)methyl 4-methylisothiazole-5-carboxylate]",53.24,,
